Data from the Kinase Knowledgebase extract (Sharma et al. 2016).

The compounds below were run against CDK2 (human) (UniProt P24941) (assay: Enzyme Assay).

| Structure (SMILES) | IC50 |
| --- | --- |
| Cc1cn[nH]c1-c1[nH]nc2c1N=C(c1ccccc1Cl)c1cc([N+](=O)[O-])ccc1N2 | 0.01 to 0.99 µM |
| COc1cc(O)ccc1-c1[nH]nc2c1N=C(c1ccccc1Cl)c1cc([N+](=O)[O-])ccc1N2 | 0.01 to 0.99 µM |
| Cc1[nH]nc2c1N=C(c1ccccc1F)c1cc(Cl)ccc1N2 | 0.01 to 0.99 µM |
| O=[N+]([O-])c1ccc2c(c1)C(c1ccccc1Cl)=Nc1c(n[nH]c1-c1ccccc1S)N2 | 0.01 to 0.99 µM |
| Cc1[nH]nc2c1N=C(c1ccccc1F)c1cc(C(=O)NCCN3CCOCC3)ccc1N2 | 0.01 to 0.99 µM |
| O=[N+]([O-])c1ccc2c(c1)C(c1ccccc1)=Nc1c(n[nH]c1C1CC1)N2 | 0.01 to 0.99 µM |
| O=[N+]([O-])c1ccc2c(c1)C(c1ccccc1Cl)=Nc1c(n[nH]c1-c1cccc(S)c1)N2 | 0.01 to 0.99 µM |
| O=[N+]([O-])c1ccc2c(c1)C(c1ccccc1Cl)=Nc1c(n[nH]c1-c1cccc3c1OCO3)N2 | 0.01 to 0.99 µM |
| O=[N+]([O-])c1ccc2c(c1)C(c1ccccc1Cl)=Nc1c[nH]nc1N2 | 0.01 to 0.99 µM |
| Cc1[nH]nc2c1N=C(c1ccccc1Cl)c1cc(Cl)ccc1N2 | 0.01 to 0.99 µM |
| Cc1[nH]nc2c1N=C(c1ccccc1Cl)c1cc(NS(C)(=O)=O)ccc1N2 | 0.01 to 0.99 µM |
| CCC(C)c1[nH]nc2c1N=C(c1ccccc1Cl)c1cc([N+](=O)[O-])ccc1N2 (stereo not drawn) | 0.01 to 0.99 µM |
| Cc1[nH]nc2c1N=C(c1ccccc1C(F)(F)F)c1cc([N+](=O)[O-])ccc1N2 | 0.01 to 0.99 µM |
| Cc1[nH]nc2c1N=C(c1ccccc1)c1ccccc1N2 | 0.01 to 0.99 µM |
| Cc1[nH]nc2c1N=C(c1ccccc1F)c1ccccc1N2 | 0.01 to 0.99 µM |
| O=[N+]([O-])c1ccc2c(c1)C(c1ccccc1)=Nc1c[nH]nc1N2 | 0.01 to 0.99 µM |
| Cc1[nH]nc2c1N=C(c1ccccc1F)c1cc(C(N)=O)ccc1N2 | 0.01 to 0.99 µM |
| C=Cc1[nH]nc2c1N=C(c1ccccc1Cl)c1cc([N+](=O)[O-])ccc1N2 | 0.01 to 0.99 µM |
| Cc1[nH]nc2c1N=C(c1ccccc1F)c1cc([N+](=O)[O-])ccc1N2 | 0.01 to 0.99 µM |
| O=C(c1ccc2c(c1)C(c1ccccc1F)=Nc1c[nH]nc1N2)N1CCOCC1 | 0.01 to 0.99 µM |
| COCc1[nH]nc2c1N=C(c1ccccc1Cl)c1cc([N+](=O)[O-])ccc1N2 | 0.01 to 0.99 µM |
| Cc1[nH]nc2c1N=C(c1ccccc1Cl)c1cc(NS(=O)(=O)N(C)C)ccc1N2 | 0.01 to 0.99 µM |
| CC(=O)Nc1ccc2c(c1)C(c1ccccc1Cl)=Nc1c(n[nH]c1C)N2 | 0.01 to 0.99 µM |
| CCOC(=O)c1ccc2c(c1)C(c1ccccc1F)=Nc1c[nH]nc1N2 | 0.01 to 0.99 µM |

| Structure (SMILES) | IC50 |
| --- | --- |
| Cc1cccc(S)c1-c1[nH]nc2c1N=C(c1ccccc1Cl)c1cc([N+](=O)[O-])ccc1N2 | 0.01 to 0.99 µM |
| CSc1ccc(-c2[nH]nc3c2N=C(c2ccccc2Cl)c2cc([N+](=O)[O-])ccc2N3)cc1 | 0.01 to 0.99 µM |
| O=[N+]([O-])c1ccc2c(c1)C(c1ccccc1C(F)(F)F)=Nc1c[nH]nc1N2 | 0.01 to 0.99 µM |
| O=[N+]([O-])c1ccc2c(c1)C(c1ccccc1Cl)=Nc1c(n[nH]c1-c1ccncc1)N2 | 0.01 to 0.99 µM |
| O=[N+]([O-])c1ccc2c(c1)C(c1ccccc1Cl)=Nc1c(n[nH]c1-c1nccs1)N2 | 0.01 to 0.99 µM |
| O=[N+]([O-])c1ccc2c(c1)C(c1ccccc1Cl)=Nc1c(n[nH]c1-c1ccc[nH]1)N2 | 0.01 to 0.99 µM |
| Cc1[nH]nc2c1N=C(c1ccccc1F)c1cc(I)ccc1N2 | 0.01 to 0.99 µM |
| O=C(NCCO)c1ccc2c(c1)C(c1ccccc1F)=Nc1c[nH]nc1N2 | 0.01 to 0.99 µM |
| O=[N+]([O-])c1ccc2c(c1)C(c1ccccc1Cl)=Nc1c(n[nH]c1-c1ccc(-c3ccccc3)cc1)N2 | 0.01 to 0.99 µM |
| O=[N+]([O-])c1ccc2c(c1)C(c1ccccc1Cl)=Nc1c(n[nH]c1CO)N2 | 0.01 to 0.99 µM |
| O=[N+]([O-])c1ccc2c(c1)C(c1ccccc1Cl)=Nc1c(n[nH]c1-c1ccc(OC(F)(F)F)cc1)N2 | 0.01 to 0.99 µM |
| O=[N+]([O-])c1ccc2c(c1)C(c1ccccc1Cl)=Nc1c(n[nH]c1C(F)(F)F)N2 | 0.01 to 0.99 µM |
| Cc1[nH]nc2c1N=C(c1ccccc1F)c1cc(F)ccc1N2 | 0.01 to 0.99 µM |
| Cc1[nH]nc2c1N=C(c1ccccc1Cl)c1cc(N)ccc1N2 | 0.01 to 0.99 µM |
| O=Cc1[nH]nc2c1N=C(c1ccccc1Cl)c1cc([N+](=O)[O-])ccc1N2 | 0.01 to 0.99 µM |
| O=[N+]([O-])c1ccc2c(c1)C(c1ccccc1Cl)=Nc1c(n[nH]c1-c1ccccc1)N2 | 0.01 to 0.99 µM |
| CC(C)c1[nH]nc2c1N=C(c1ccccc1Cl)c1cc(N)ccc1N2 | 0.01 to 0.99 µM |
| N#Cc1[nH]nc2c1N=C(c1ccccc1Cl)c1cc([N+](=O)[O-])ccc1N2 | 0.01 to 0.99 µM |
| CC(C)c1[nH]nc2c1N=C(c1ccccc1Cl)c1cc([N+](=O)[O-])ccc1N2 | 0.01 to 0.99 µM |
| N#Cc1ccc2c(c1)C(c1ccccc1F)=Nc1c[nH]nc1N2 | 0.01 to 0.99 µM |
| Cc1[nH]nc2c1N=C(c1ccccc1)c1cc(F)ccc1N2 | 0.01 to 0.99 µM |
| O=[N+]([O-])c1cccc(C2=Nc3c[nH]nc3Nc3ccc([N+](=O)[O-])cc32)c1 | 0.01 to 0.99 µM |
| O=[N+]([O-])c1ccc2c(c1)C(c1ccccc1Cl)=Nc1c(n[nH]c1-c1cc[nH]n1)N2 | 0.01 to 0.99 µM |

Next, values leading:

| IC50 | Structure (SMILES) |
| --- | --- |
| 0.01 to 0.99 µM | CCOC(=O)c1ccc2c(c1)C(c1ccccc1F)=Nc1c(n[nH]c1C)N2 |
| 0.01 to 0.99 µM | Cc1[nH]nc2c1N=C(c1ccccc1)c1cc(Cl)ccc1N2 |
| 0.01 to 0.99 µM | O=[N+]([O-])c1ccc2c(c1)C(c1ccccc1Cl)=Nc1c(n[nH]c1C1CC1)N2 |
| 0.01 to 0.99 µM | Cc1[nH]nc2c1N=C(c1ccccc1F)c1cc(C(=O)NCCO)ccc1N2 |
| 0.01 to 0.99 µM | NC(=O)c1ccc2c(c1)C(c1ccccc1F)=Nc1c[nH]nc1N2 |
| 0.01 to 0.99 µM | O=[N+]([O-])c1ccc2c(c1)C(c1ccccc1Cl)=Nc1c(n[nH]c1-c1cccnc1)N2 |
| 0.01 to 0.99 µM | Cc1[nH]nc2c1N=C(c1ccccc1Cl)c1cc(NS(=O)(=O)N3CCOCC3)ccc1N2 |
| 0.01 to 0.99 µM | Cc1[nH]nc2c1N=C(c1ccccc1Cl)c1cc(NS(=O)(=O)NCCl)ccc1N2 |
| 0.01 to 0.99 µM | O=[N+]([O-])c1cccc(-c2[nH]nc3c2N=C(c2ccccc2Cl)c2cc([N+](=O)[O-])ccc2N3)c1 |
| 0.01 to 0.99 µM | NNC(=O)c1[nH]nc2c1N=C(c1ccccc1Cl)c1cc([N+](=O)[O-])ccc1N2 |
| 0.01 to 0.99 µM | Cc1[nH]nc2c1N=C(c1ccccc1)c1cc([N+](=O)[O-])ccc1N2 |
| 0.01 to 0.99 µM | N#Cc1ccc2c(c1)C(c1ccccc1F)=Nc1c(n[nH]c1CO)N2 |
| 0.01 to 0.99 µM | O=[N+]([O-])c1ccc2c(c1)C(c1ccccc1Cl)=Nc1c(n[nH]c1-c1c[nH]cn1)N2 |
| 0.01 to 0.99 µM | C=CC(=O)Nc1ccc2c(c1)C(c1ccccc1Cl)=Nc1c(n[nH]c1C)N2 |
| 0.01 to 0.99 µM | COc1ccc2c(c1)C(c1ccccc1Cl)=Nc1c(n[nH]c1C)N2 |
| 0.01 to 0.99 µM | CCc1[nH]nc2c1N=C(c1ccccc1Cl)c1cc([N+](=O)[O-])ccc1N2 |
| 0.01 to 0.99 µM | Cc1[nH]nc2c1N=C(c1ccccc1Cl)c1cc([N+](=O)[O-])ccc1N2 |
| 0.01 to 0.99 µM | Clc1ccccc1C1=Nc2c[nH]nc2Nc2ccccc21 |
| 0.01 to 0.99 µM | O=[N+]([O-])c1ccc2c(c1)C(c1ccccc1F)=Nc1c[nH]nc1N2 |
| 0.01 to 0.99 µM | NC(=O)c1[nH]nc2c1N=C(c1ccccc1Cl)c1cc([N+](=O)[O-])ccc1N2 |
| 0.01 to 0.99 µM | Cc1[nH]nc2c1N=C(c1ccccc1F)c1cc(C(=O)N3CCOCC3)ccc1N2 |
| 0.01 to 0.99 µM | Cc1[nH]nc2c1N=C(c1ccccc1Cl)c1ccccc1N2 |
| 0.01 to 0.99 µM | O=[N+]([O-])c1ccc2c(c1)C(c1ccccc1Cl)=Nc1c(n[nH]c1-c1ccco1)N2 |
| 0.01 to 0.99 µM | Cc1[nH]nc2c1N=C(c1ccccc1F)c1cc(C#N)ccc1N2 |
| 0.01 to 0.99 µM | CCCc1[nH]nc2c1N=C(c1ccccc1Cl)c1cc([N+](=O)[O-])ccc1N2 |
| 0.01 to 0.99 µM | O=[N+]([O-])c1ccc2c(c1)C(c1ccccc1Cl)=Nc1c(n[nH]c1-n1cccn1)N2 |
